Reference: patent US5677336A, “Non-steroid androgen receptor antagonist compounds and methods” (Ligand Pharmaceuticals Incorporated, priority 1993, dated 1997)
Read-outs that look alike come from different tables or passages of the source.

Key:
androgen receptor = target: T1, androgen receptor (Homo sapiens, UniProt P10275); test: Co-transfection androgen antagonist assay (CV-1 cells, pRShAR, MTV-LUC reporter; AR-wt); type: cell-based; conditions: for IC50: read-out: Potency (IC50, concentration required to reduce the maximal response by 50%)
T1 construct: expressed in transfected cells; host or cells: CV-1 (monkey kidney fibroblast) cells, plasmid pRShAR, with reporter plasmid MTV-LUC
T1 sequence (P10275 1-920): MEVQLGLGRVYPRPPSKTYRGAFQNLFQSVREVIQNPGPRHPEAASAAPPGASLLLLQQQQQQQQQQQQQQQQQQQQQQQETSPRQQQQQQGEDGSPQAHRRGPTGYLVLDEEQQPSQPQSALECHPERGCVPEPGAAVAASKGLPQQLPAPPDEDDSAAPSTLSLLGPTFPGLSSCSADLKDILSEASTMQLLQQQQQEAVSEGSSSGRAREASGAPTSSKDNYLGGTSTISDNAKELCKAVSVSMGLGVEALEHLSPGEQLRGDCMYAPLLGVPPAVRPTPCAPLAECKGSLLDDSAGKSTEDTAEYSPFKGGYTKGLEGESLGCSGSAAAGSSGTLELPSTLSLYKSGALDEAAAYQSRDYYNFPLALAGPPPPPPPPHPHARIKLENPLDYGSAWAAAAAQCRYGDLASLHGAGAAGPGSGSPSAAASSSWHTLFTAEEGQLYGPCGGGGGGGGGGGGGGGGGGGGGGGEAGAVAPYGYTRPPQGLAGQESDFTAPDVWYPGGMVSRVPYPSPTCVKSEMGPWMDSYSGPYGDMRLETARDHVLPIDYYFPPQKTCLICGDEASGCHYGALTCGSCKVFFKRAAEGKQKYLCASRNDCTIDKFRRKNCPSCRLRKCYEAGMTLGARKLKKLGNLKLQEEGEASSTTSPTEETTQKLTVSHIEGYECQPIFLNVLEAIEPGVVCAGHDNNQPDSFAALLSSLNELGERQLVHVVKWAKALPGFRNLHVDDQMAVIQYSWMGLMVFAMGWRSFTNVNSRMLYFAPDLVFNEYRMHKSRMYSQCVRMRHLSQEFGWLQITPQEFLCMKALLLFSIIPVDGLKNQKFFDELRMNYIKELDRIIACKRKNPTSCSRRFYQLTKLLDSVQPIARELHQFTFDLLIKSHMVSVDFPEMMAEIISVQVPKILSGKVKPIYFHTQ
Description: The co-transfection assay provides a method for identifying functional ligands (either agonists which mimic, or antagonists which inhibit, the effect of hormones), and quantifying their activity for ligand-responsive receptor proteins. In this regard, the co-transfection assay mimics an in vivo system in the laboratory. Importantly, activity in the co-transfection assay correlates very well with known in vivo activity, such that the co-transfection assay functions as a quantitative predicator of a tested compounds in vivo pharmacology. See, e.g., T. Berger et al. 41 J. Steroid Biochem. Molec.
(§1) In the co-transfection assay, a cloned gene for an intracellular receptor (e.g., androgen receptor) is introduced by transfection (a procedure to induce cells to take up foreign genes) into a background cell substantially devoid of endogenous intracellular receptors. This introduced gene directs the recipient cells to make the intracellular receptor protein. A second gene is also introduced (co-transfected) into the same cells in conjunction with the intracellular receptor gene. This second gene functions as a reporter for the transcription-modulating activity of the target intracellular receptor. Thus, the reporter acts as a surrogate for the products normally expressed by a gene under control of the target receptor and its natural hormone. A preferred reporter gene is one which expresses the firefly enzyme luciferase.
(§2) The co-transfection assay can detect small molecule agonists or antagonists of target intracellular receptors. Exposing the cells to an agonist ligand increases reporter activity in the transfected cells. This activity can be conveniently measured, e.g., by increasing luciferase production, which reflects ligand-dependent, intracellular receptor-mediated increases in reporter transcription. To detect antagonists, the co-transfection assay is carried out in the presence of a constant concentration of an agonist (e.g., for androgen receptor, dihydrotestosterone) known to induce a defined reporter signal. Increasing concentrations of a test antagonist will decrease the reporter signal (e.g., luciferase production). The co-transfection assay is therefore useful to detect both agonists and antagonists of specific intracellular receptors. It determines not only whether a compound interacts with a particular intracellular receptor, but whether this interaction mimics (agonizes) or blocks (antagonizes) the effects of the natural regulatory molecules on target gene expression, as well as the specificity and strength of this interaction.
Co-transfected cells are exposed to a medium to which is added the potential ligand (compound) that is being evaluated. If the candidate compound diffuses into the cell, binds to the receptor, and the resulting receptor complex functions as an agonist, it will subsequently bind to the co-transfected reporter gene and initiate transcription. Typically, the reporter gene is one that expresses luciferase, which is capable of catalyzing a light-emitting reaction with its substrate luciferin. Thus, after cell lysis and the introduction of luciferin, the amount of light produced relative to the concentration of candidate compound used in the assay provides a measure of the potency and efficacy of the compound tested. Antagonist activity is evaluated by adding the candidate ligand and a known agonist to the co-transfected cells. […]

[1] = tested on: progesterone receptor (PR-TI); test: Antagonist activity on progesterone receptor, CV-1 cells cotransfected with pRShPR-B altered at Tau-1 (PR-TI); type: cell-based, human; conditions: Table 2, CV-1 cells PR-TI; for Efficacy, PR-TI (% maximal response): comparable to that found with RU-486; for IC50: read-out: Potency, PR-TI (IC50)
Description: as §1, §2
Co-transfected cells are exposed to a medium to which is added the potential ligand (compound) that is being evaluated. If the candidate compound diffuses into the cell, binds to the receptor, and the resulting receptor complex functions as an agonist, it will subsequently bind to the co-transfected reporter gene and initiate transcription. Typically, the reporter gene is one that expresses luciferase, which is capable of catalyzing a light-emitting reaction with its substrate luciferin. Thus, after cell lysis and the introduction of luciferin, the amount of light produced relative to the concentration of candidate compound used in the assay provides a measure of the potency and efficacy of the compound tested. Antagonist activity is evaluated by adding the candidate ligand and a known agonist to the co-transfected cells.
The specific activity of Compounds A-J was compared relative to their antagonist activity on the human progesterone receptor (PR) utilizing CV-1 cells cotransfected with plasmid pRShPR-B, as altered at the Tau-1 location (e.g., PR-TI)[specifically, hPR-B was excised from the vector pGEM3Z (69 Cell 703 (1992)); the Tau-1 fragment of the gluccocorticoid receptor was inserted into hPR-B at the unique HincII site in the N-terminal region; a Bst EII to BST bI fragment spanning the Tau-1 insertion was then used to replace the corresponding region in pRShPR-B]. […] Potency or IC50 is as reported for AR-wt transfected CV-1 cells.

[2] = CV-1, Table 1, androgen antagonists, relative to 2-Hydroxy-flutamide, read-out: Efficacy (% maximal response relative to 2-Hydroxy-flutamide)
[3] = Table 2, CV-1 cells AR-wt, read-out: Efficacy, AR-wt

Compound | Emax (androgen receptor; [2]) | IC50 (androgen receptor; Table 1, androgen antagonists) | Emax (androgen receptor; [3]) | IC50 [1] | Efficacy, PR-TI (% maximal response) [1]
COc1cc(CC2C(C)(C)CC(C)=CC23CC3)c(OC(C)=O)cc1Br (stereo not shown) [H, 8-(2'-Acetoxy-4'-bromo-5 '-methoxyphenyl)methyl-5,7,7-trimethylspiro[2.51]oct-4-ene] | 89% | 250 nM | 89% | 160 nM | 26%
COc1cc(C[C@@H]2CCCC[C@@]2(C)O)c(O)cc1Br (relative stereo) [Q, trans-1-Methyl-2-(2'-hydroxy-4'-bromo-5'-methoxyphenyl)methylcyclohexan-1-ol] | 94% | 460 nM |  |  | 
C=C1C=C(C)C[C@@H](C)[C@@H]1Cc1cc(OC)c(Br)cc1OC(C)=O [O, (5R,6S)-1-Methylidene-6-(2'-acetoxy-4'-bromo-5 '-methoxyphenyl)methyl-3,5-dimethyl-cyclohex-2-ene] | 78% | 390 nM |  |  | 
C=C1C=CC(Br)C(C)(C)[C@H]1Cc1cc(OC)c(Br)cc1OC(C)=O (stereo partly drawn) [E, (4S,6S)-1-Methylidene-4-bromo-5-(2'-acetoxy-4'-bromo-5'-methyoxyphenyl)methyl-5,5-dimethylcyclohex-2-ene] | 60% | 230 nM | 60% | > 10000 nM | 20%
C=C1C=CCC(C)(C)C1Cc1ccccc1O (stereo not shown) [C, 1-Methylidene-6-(2'-hydroxyphenyl)methyl-5,5-dimethylcyclohex-2-ene] | 82% | 210 nM | 82% | > 10000 nM | 20%
C=C1C=CC[C@@H](C)[C@@H]1Cc1cc(OC)c(Br)cc1OC(C)=O [L, (5R,6S)-1-Methylidene-6-(2'-acetoxy-4'-bromo-5'-methoxyphenyl)methyl-5-methylcyclohex-2-ene] | 88% | 370 nM |  |  | 
C=C1CCC(C)(C)C1Cc1cc(OC)c(Br)cc1O (stereo not shown) [K, 1-Methylidene-2-(2'-hydroxy-4'-bromo-5'methoxyphenyl)methyl-3,3-dimethylcyclo-pentane] | 91% | 330 nM |  |  | 
O=[N+]([O-])c1ccc(C[C@@H]2CCCC[C@H]2O)cc1 (relative stereo) [I, trans-2-(4'-Nitrophenyl)methylcyclohexan-1-ol] | 85% | 290 nM | 85% | 360 nM | 99%
C=C1C=CCC(C)(C)C1Cc1cc(OC)c(Br)cc1O (stereo not shown) [W, 1-Methylidene-6-(2'-hydroxy-4'-bromo-5'-methoxyphenyl)methyl-5,5-dimethylcyclo-hex-2-ene] | 89% | 610 nM |  |  | 
C=C1C=CCC(C)(C)C1Cc1cccc([N+](=O)[O-])c1 (stereo not shown) [Compound A, 1-Methylidene-6-(3'-nitrophenyl)methyl-5,5-dimethylcyclohex-2-ene] | 69% | 66 nM | 69% | 3800 nM | 45%

Continued, in another order:

Emax (androgen receptor; [2]) | IC50 (androgen receptor; Table 1, androgen antagonists) | Emax (androgen receptor; [3]) | IC50 [1] | Compound | Efficacy, PR-TI (% maximal response) [1]
67% | 340 nM |  |  | COc1cc(CC2CCCCC2=O)c(O)cc1Br (stereo not shown) [Y, 2-(2'-hydroxy-4'-bromo-5 '-methoxyphenyl)methylcyclohex-1-one] | 
85% | 180 nM | 85% | 865 nM | C=C1[C@@H](Cc2cc(OC)c(Br)cc2O)C(C)(C)CC[C@@H]1O [B, (1S,3S)-1-Hydroxy-2-methylidene-3-(2'-hydroxy-4'-bromo-5'-methoxyphenyl)methyl-4,4-dimethylcyclohexane] | 98%
79% | 250 nM | 79% | 920 nM | O=C1CCCCC1Cc1ccc([N+](=O)[O-])cc1 (stereo not shown) [G, 2-(4'-Nitrophenyl)methylcyclohexan-1-one] | 98%
70% | 500 nM |  |  | C=C1[C@H](O)CCC(C)(C)[C@H]1Cc1cc(OC)c(Br)cc1O [R, (1R,3R)-1-Hydroxy-2-methylidene-3-(2'-hydroxy-4'-bromo-5'-methoxyphenyl)methyl-4,4-dimethylcyclohexane] | 
92% | 500 nM |  |  | C=C1C[C@H](C)CC(C)(C)[C@@H]1Cc1cc(OC)c(Br)cc1O (relative stereo) [S, cis-1Methylidene-2-(2'-hydroxy-4'-bromo-5'-methoxyphenyl)methyl-3,3,5-trimethyl-cyclohexane] | 
85% | 300 nM | 85% | 850 nM | C=C1[C@@H](Cc2cc(OC)c(Br)cc2O)C(C)(C)CC[C@]1(C)O [J, (1S,3S)-1-Hydroxy-2-methylidene-3-(2'-hydroxy-4'-bromo-5'-methoxyphenyl)methyl-1,4,4-trimethylcyclohexane] | 95%
88% | 545 nM |  |  | C=C1C=CCC(C)(C)C1Cc1ccc([N+](=O)[O-])c(C)c1 (stereo not shown) [T, 1-Methylidene-6-(3'-methyl-4'-nitrophenyl)methyl-5,5-dimethylcyclohex-2-ene] | 
85% | 590 nM |  |  | CC1(C)CCCC(=O)C1Cc1ccc([N+](=O)[O-])cc1 (stereo not shown) [V, 2-(4'-Nitrophenyl)methyl-3.3-dimethylcyclohexan-1-one] | 
88% | 420 nM |  |  | C=C1[C@@H](Cc2cc(OC)c(Br)cc2O)C(C)(C)CC[C@@]1(C)O [P, (1R,3S)-1-Hydroxy-2-methylidene-3-(2'-hydroxy-4'-bromo-5'-methoxyphenyl)methyl-1,4,4-trimethylcyclohexane] | 
69% | 565 nM |  |  | C=C1C=C(C)CC(C)(C)C1Cc1ccc([N+](=O)[O-])c(C)c1 (stereo not shown) [U, 1-Methylidene-6-(3'-methyl-4'-nitrophenyl)methyl-3,5,5-trimethylcyclohex-2-ene] | 
